Data taken from patent US7612250B2, “Nuclear transfer embryo formation method” (Trustees of Tufts College, priority 2002, dated 2009).

Assays:
[1] = tested on: B6D2F1 and CF-1 mouse oocytes; experiment: Complete second polar body extrusion in ethanol-activated mouse oocytes treated with demecolcine; assay type: cell-based; details: demecolcine for only 15, 30 or 45 min, compared with continuous exposure; preliminary, unpublished
Procedure: (§1) Hybrid B6D2F1 (C57BL/6×DBA/2) and outbred CF-1 female mice, 8-12 weeks of age, were used as oocyte donors. […] Females were induced to superovulate by intraperitoneal injection of 5 1U of pregnant mare serum gonadotropin (PMSG, Calbiochem) followed 48 h later by 5 1U of human chorionic gonadotropin (hCG, Calbiochem). MII oocytes were collected from oviducts 16-17 h after hCG administration in Hepes-buffered KSOM (H-KSOM, Specialty Media). Cumulus cells were dispersed by incubation in 150 units/ml of bovine testicular hyaluronidase (Sigma) in H-KSOM at 37° C. for 5 min. Cumulus-free oocytes were then washed three times in fresh H-KSOM and immediately activated.
Oocytes were parthenogenetically activated by a 5-min exposure to freshly prepared 7% (v/v) ethanol in H-KSOM at 37° C. and then washed twice in H-KSOM. Removal of oocytes from ethanol was considered as time zero post-activation (p.a.). […]
(§2) A triple labeling protocol was used for the detection of microtubules, microfilaments and chromatin by fluorescence microscopy. […]
(§3) Labeled oocytes were examined using a Zeiss IM-35 inverted epi-fluorescence microscope fitted with filters selective for Hoechst, fluorescene and Texas Red and a 50 W mercury lamp. […]
(§4) Data were analyzed by x^2 test or Fisher's exact test. […]

[2] = tested on: B6D2F1 and CF-1 mouse oocytes
Procedure: as §1
(§5) Oocytes were parthenogenetically activated by a 5-min exposure to freshly prepared 7% (v/v) ethanol in H-KSOM at 37° C. and then washed twice in H-KSOM. Removal of oocytes from ethanol was considered as time zero post-activation (p.a.). To monitor meiotic progression, activated control oocytes (EtOH groups) were cultured for up to 2 h and 15 min and fixed at 30 min intervals, starting 45 min p.a. Culture of activated oocytes was at 37° C. under 5% COZ in air in KSOM medium containing 1 mg/ml BSA and amino acids (16; Specialty Media).
(§6) Fixed oocytes were stored until processing at 4 C. in a PBS blocking solution containing 1% BSA, 0.2% powdered milk, 2% normal goat serum, 0.1 M glycine, 0.2% sodium azide and 0.01% Triton X-100.
A triple labeling protocol was used for the detection of microtubules, microfilaments and chromatin by fluorescence microscopy. Oocytes were first incubated for 1 h at 37° C. in a mixture of mouse monoclonal anti a-tubulin and anti (3-tubulin antibodies (Sigma) at a 1:1000 final dilution. After several washes in 0.1% polyvinylpyrrolidone (PVP)/PBS at room temperature, oocytes were incubated at 37° C. in PBS blocking solution for 30 min and then in a 1:150 dilution of a donkey antimouse fluorescein-conjugated IgG (Jackson ImmunoResearch) for 45 min at 37° C. Oocytes were washed again several times in 0.1% PVP/PBS and incubated at 37° C. for 30 min in 10 units/ml of Texas Red-conjugated phalloidin (Molecular Probes) to stain actin filaments. Finally, after extensive washing in 0.1% PVP/PBS, oocytes were incubated at room temperature for 15 min in 10 μLg/ml Hoechst 33258 (Molecular Probes) and mounted in 50% glycerol/PBS containing 25 mg/ml sodium azide.
Labeled oocytes were examined using a Zeiss IM-35 inverted epi-fluorescence microscope fitted with filters selective for Hoechst, fluorescene and Texas Red and a 50 W mercury lamp. Selected images were acquired using a Photometrics Cool Snap CCD camera (Roper Scientific Inc., Trenton, N.J.) running on Metamorph software (version 5.0, Universal Imaging Corp., Downington, Pa.).
Data were analyzed by x^2 test or Fisher's exact test. A probability value of P<0.05 was considered to be statistically significant.
In vivo ovulated mouse oocytes (B6D2F1, n-959; CF 1, n=999) and in vitro matured goat oocytes (n-163) were denuded activated (7% ethanol) and incubated for up to 3.5 hr in KSOM.

[3] = tested on: bovine oocytes; experiment: Induced enucleation (IE) of activated bovine oocytes by demecolcine; assay type: cell-based
[4] = tested on: goat oocytes
Procedure: This study was designed to characterize the kinetics and progressive phenotypes observed during induced enucleation (IE) of activated mouse and goat oocytes. In vivo ovulated mouse oocytes (B6D2F1, n-959; CF 1, n=999) and in vitro matured goat oocytes (n-163) were denuded activated (7% ethanol) and incubated for up to 3.5 hr in KSOM. […] At selected time points oocytes (n=11.50) were fixed/extracted and processed for immunofluorescence microscopy to document activation and meiotic progression based on spindle (microtubules), chromatin (H33258) and polar body (PB. microfilaments) phenotypes.

[5] = tested on: bovine oocytes / NT embryos; experiment: In vitro development (7 days) of bovine NT embryos / parthenotes prepared with demecolcine; assay type: cell-based; details: for cleavage rate / morula/blastocyst rate: 7 days culture
Procedure: Progress has continued with experiments designed to compare in vitro development of control embryos (parthenotes) with that of reconstructed NT embryos prepared by conventional NT, telophase NT, IE and a novel simultaneous IE-NT paradigm (SIE/NT; see Table 1 below). As in all previous experiments, abattoir-sourced oocytes were obtained having been submitted to 26 h of maturation in ACM medi a @5%CO2 in air. Oocytes were denuded (enzyme/vortex) and activated (5 μM ionomyciin for 5 min, +/−CHX). See Example 2 for detail on methods. […] In the case of SIE/NT, donor karyoplasts (fibroblasts) were injected immediately prior to or immediately after activation. In vitro embryo development was evaluated over a period of 7 days.

[6] = tested on: B6D2F1 and CF-1 mouse oocytes; remark: listed apart in the source
Procedure: as §1, §5, §6, §2, §3, §4

[7] = IE group: fibroblast nuclei injected into IE cytoplasts 1.5-3 hpa
[8] = Induced Enucleation (IE): demecolcine 0.4 μg/ml 1.5-5 h p.a., nuclei injected 1.5-3 h p.a.
[9] = Simultaneous IE-NT (SIE/NT): karyoplasts injected immediately prior to or after activation
[10] = parthenogenetically activated and DM treated oocytes (control group)

CN[C@H]1CCc2cc(OC)c(OC)c(OC)c2-c2ccc(OC)c(=O)cc21 [demecolcine]
rates of second PB extrusion after short exposure [1]: slightly higher | enucleation rates of oocytes that completed second PB extrusion ([2]; CF-1, four treatments (onset 0-15 min p.a.), all time-points combined): ~80% | rates of oocyte enucleation after short exposure ([2]; demecolcine for only 15, 30 or 45 min, compared with continuous exposure, preliminary, unpublished): reduced | maximum IE rates ([2]; mouse oocytes exposed to demecolcine immediately after activation, strain-dependent): 23-100% | time required for induced enucleation ([2]; murine oocytes): about 1.5 hours | induced enucleation rate ([2]; murine oocytes, about 1.5 hours): greater than 50% | maximum rate of IE ([3]; DM 0.4 μg/ml between 1.5 and 5hpa, at 5hpa): 91% | IE rates ([3]; DM 0.4 μg/ml, varied onset and duration, at 5hpa): 60-91% | induced enucleation rate ([3]; bovine oocytes, about 5 hours post-activation): greater than 80% | time required for induced enucleation ([3]; bovine oocytes, post-activation): about 5 hours | time required for induced enucleation [4]: about 5 hours | induced enucleation rate ([4]; 5 hours): greater than 80% | cleavage rate [5, 7]: 48% | morula/blastocyst rate [5, 7]: 27% | Blastocyst [5, 8]: 16% | Cleavage [5, 8]: 49% | Fragmented [5, 8]: 20% | Morula [5, 8]: 17% | Blastocyst [5, 9]: 25% | Cleavage [5, 9]: 54% | Fragmented [5, 9]: 18% | cleavage rate [5, 10]: 49% | morula/blastocyst rate [5, 10]: 30% | oocytes showing complete spindle rotation ([6]; CF-1 and B6D2F1 treated oocytes, all treatments, 135 min p.a.): 0-9.6% | oocytes in which spindle rotation is completed ([6]; demecolcine treated oocytes, both strains): less than 10% | time after onset of treatment at which effect on the meiotic spindle was evident ([6]; smaller spindles, lower MT density than untreated activated oocytes): 15 min
